Test results from ChEMBL document CHEMBL4007425, “Drug Repurposing of Histone Deacetylase Inhibitors That Alleviate Neutrophilic Inflammation in Acute Lung Injury and Idiopathic Pulmonary Fibrosis via Inhibiting Leukotriene A4 Hydrolase and Blocking LTB4 Biosynthesis” (J Med Chem, 2017).
The source made the active and inactive calls. No cut-off for these calls is given here.

Experiments:
[1] = molecular target: T1, Leukotriene A-4 hydrolase (Homo sapiens, UniProt P09960); assay: Inhibition of recombinant human LTA4H aminopeptidase activity expressed in Escherichia coli BL21 (DE3) pLysS assessed as formation of p-NA from Ala-p-NA preincubated for 10 mins followed by substrate addition measured after 10 mins; type: ADME
T1 sequence (P09960 whole entry): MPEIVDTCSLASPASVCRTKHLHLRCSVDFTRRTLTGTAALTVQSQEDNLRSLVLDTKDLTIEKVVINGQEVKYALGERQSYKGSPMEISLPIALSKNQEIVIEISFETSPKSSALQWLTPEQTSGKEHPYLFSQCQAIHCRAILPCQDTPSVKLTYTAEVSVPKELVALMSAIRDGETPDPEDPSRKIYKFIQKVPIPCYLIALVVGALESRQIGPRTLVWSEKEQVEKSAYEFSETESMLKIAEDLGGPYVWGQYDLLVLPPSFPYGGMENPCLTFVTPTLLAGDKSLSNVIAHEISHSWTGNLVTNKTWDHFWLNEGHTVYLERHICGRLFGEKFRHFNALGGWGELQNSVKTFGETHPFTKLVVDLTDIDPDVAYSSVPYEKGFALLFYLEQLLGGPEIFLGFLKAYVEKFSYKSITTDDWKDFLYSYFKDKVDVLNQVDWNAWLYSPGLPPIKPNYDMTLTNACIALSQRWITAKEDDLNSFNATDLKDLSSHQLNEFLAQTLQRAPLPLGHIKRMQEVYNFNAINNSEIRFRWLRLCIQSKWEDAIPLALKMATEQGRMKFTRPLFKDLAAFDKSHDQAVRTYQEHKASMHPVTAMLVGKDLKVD

[2] = molecular target: T2, Polyunsaturated fatty acid lipoxygenase ALOX12 (Homo sapiens) (UniProt P18054); assay: Inhibition of recombinant human N-terminal His-tagged 12-LOX expressed in Escherichia coli assessed as conversion of arachidonic acid to HETEs measured for 300 secs by UV-visible spectrophotometric analysis
T2 sequence (whole entry): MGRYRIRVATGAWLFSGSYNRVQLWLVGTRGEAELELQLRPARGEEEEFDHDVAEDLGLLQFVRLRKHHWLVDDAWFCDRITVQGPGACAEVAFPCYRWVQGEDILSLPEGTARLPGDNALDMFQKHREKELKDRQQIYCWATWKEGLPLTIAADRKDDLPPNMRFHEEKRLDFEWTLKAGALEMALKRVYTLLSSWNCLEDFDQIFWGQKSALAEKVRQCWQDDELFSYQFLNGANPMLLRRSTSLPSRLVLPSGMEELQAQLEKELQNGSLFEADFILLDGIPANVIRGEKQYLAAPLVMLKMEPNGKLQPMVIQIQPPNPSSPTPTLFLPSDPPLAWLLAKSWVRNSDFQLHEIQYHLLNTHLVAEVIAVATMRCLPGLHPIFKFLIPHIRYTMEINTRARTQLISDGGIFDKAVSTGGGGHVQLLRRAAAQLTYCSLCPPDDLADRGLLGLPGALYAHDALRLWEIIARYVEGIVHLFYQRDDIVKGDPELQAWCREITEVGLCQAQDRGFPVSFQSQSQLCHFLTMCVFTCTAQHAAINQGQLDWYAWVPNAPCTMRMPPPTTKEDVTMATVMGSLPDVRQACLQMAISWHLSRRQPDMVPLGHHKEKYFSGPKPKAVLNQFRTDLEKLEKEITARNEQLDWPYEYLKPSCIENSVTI

Mus musculus [3] = assay: Anti-inflammatory activity in LPS-induced C57BL/6 mouse model of acute lung injury assessed as reduction in total number of leucocytes in BALF at 25 mg/kg, ip pretreated for 1 hr followed LPS challenge measured after 24 hrs; type: functional, organism-based
Mus musculus [4] = assay: Anti-inflammatory activity in LPS-induced C57BL/6 mouse model of acute lung injury assessed as reduction MPO activity at 25 mg/kg, ip pretreated for 1 hr followed LPS challenge measured after 24 hrs; type: functional, organism-based
Mus musculus [5] = assay: Anti-inflammatory activity in BLM-induced C57BL/6 mouse model of acute lung neutrophilic inflammation assessed as reduction in number of neutrophils in BALF at 10 and 25 mg/kg, ip qd for 7 days post BLM challenge measured on day 7; type: functional, organism-based
Mus musculus [6] = assay: Anti-inflammatory activity in BLM-induced C57BL/6 mouse model of acute lung neutrophilic inflammation assessed as reduction in number of lymphocytes in BALF at 10 and 25 mg/kg, ip qd for 7 days post BLM challenge measured on day 7; type: functional, organism-based
Mus musculus [7] = assay: Anti-inflammatory activity in BLM-induced C57BL/6 mouse model of acute lung injury assessed as reduction in IL-6 mRNA level in BALF compound administered intraperitoneally once daily for 7 days post BLM challenge measured on day 7 by qRT-PCR method; type: functional
[8] = molecular target: T3, Leukotriene A-4 hydrolase (LTA4H) aminopeptidase activity (Homo sapiens, UniProt P09960); assay: Inhibition of recombinant human LTA4H aminopeptidase activity expressed in Escherichia coli BL21 (DE3) pLysS assessed as formation of p-NA from Ala-p-NA at 10 uM preincubated for 10 mins followed by substrate addition measured after 10 mins
T3 sequence (P09960 whole entry): T1 sequence (P09960 whole entry)

[9] = molecular target: T4, Leukotriene A-4 hydrolase (Mus musculus, UniProt P24527); assay: Inhibition of LTA4H in C57BL/6 mouse assessed as reduction in LTB4 production pre-incubated for 30 mins before 5-(methylamino)-2-({(2R,3R,6S,8S,9R,11R)-3,9,11-trimethyl-8-[(1S)-1-methyl-2-oxo-2-(1H-pyrrol-2-yl)ethyl]-1,7-dioxaspiro[5.5]undec-2-yl}methyl)-1,3-benzoxazole-4-carboxylic acid stimulation for 30 mins by ELISA
T4 sequence (P24527 whole entry): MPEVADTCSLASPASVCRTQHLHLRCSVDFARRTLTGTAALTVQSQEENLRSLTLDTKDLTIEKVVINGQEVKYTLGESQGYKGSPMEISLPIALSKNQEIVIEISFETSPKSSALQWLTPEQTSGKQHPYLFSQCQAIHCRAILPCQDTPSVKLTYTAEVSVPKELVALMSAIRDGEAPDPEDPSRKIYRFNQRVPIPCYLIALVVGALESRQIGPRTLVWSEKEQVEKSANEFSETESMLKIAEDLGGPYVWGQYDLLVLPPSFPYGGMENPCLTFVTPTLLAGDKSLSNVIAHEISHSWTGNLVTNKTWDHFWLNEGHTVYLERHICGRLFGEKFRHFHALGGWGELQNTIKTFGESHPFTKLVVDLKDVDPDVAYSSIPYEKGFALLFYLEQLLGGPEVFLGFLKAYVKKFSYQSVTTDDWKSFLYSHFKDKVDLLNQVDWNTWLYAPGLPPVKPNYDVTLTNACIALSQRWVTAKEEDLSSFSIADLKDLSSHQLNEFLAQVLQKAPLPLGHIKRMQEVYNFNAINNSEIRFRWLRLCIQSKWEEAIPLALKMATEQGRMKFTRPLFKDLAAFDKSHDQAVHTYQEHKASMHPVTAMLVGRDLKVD

Mus musculus [10] = assay: Anti-inflammatory activity in LPS-induced C57BL/6 mouse model of acute lung injury assessed as reduction in TNFalpha mRNA level pretreated intraperitoneally for 1 hr followed LPS challenge after 24 hrs by qRT-PCR method; type: functional
Mus musculus [11] = assay: Protection against BLM-induced lung fibrosis in C57BL/6 mouse assessed as TGF-beta1 level at 25 and 50 mg/kg, ip qd for 7 days post BLM challenge measured on day 14 by qRT-PCR method; type: functional, organism-based

Compound | IC50 [1] | INH [2] | Activity (Mus musculus [3]) | Activity (Mus musculus [4]) | Activity (Mus musculus [5]) | Activity (Mus musculus [6]) | Activity (Mus musculus [7]) | inhibition at 10 min, 10 µM ([8]; probe Ala-p-NA) | IC50 [9] | Activity (Mus musculus [10]) | inhibition at 10 min, 10 µM [8] | Activity (Mus musculus [11])
CN(C)c1ccc(C(=O)NCCCCCCC(=O)NO)cc1 | 300 nM | > 50 µM | Active | Active | Active | Active | Dose-dependent effect | > 50% | 790 nM | – | – | –
O=C(CCCCCCC(=O)Nc1ccccc1)NO [VORINOSTAT] | 1670 nM | > 50 µM | Active | Active | Active | Active | Dose-dependent effect | – | 6150 nM | Dose-dependent effect | > 50% | Active
